Experimental data reported in patent US6372791B1, “Method of promoting skin cell metabolism” (Johnson & Johnson Consumer Companies, Inc., priority 2000, dated 2002).

Tested on: primary normal human dermal fibroblasts (NHDF)
Experiment: Energy production (metabolic activity) by alamarBlue REDOX indicator fluorescence
Assay type: cell-based
Conditions: NHDF in DMEM prepared with Evian mineral water; 10 mM of each agent; 3-hour incubation, then alamarBlue 1 hour; fluorescence ex 530 nm/em 590 nm; n=8
Method: The effects of L-carnitine and sodium pyruvate, in mineral water, on energy production were evaluated in primary normal human dermal fibroblasts (adult). Energy production in the cell is assessed using the REDOX sensitive indicator alamarBlue™ (Alamar Biosciences, Sacramento, Calif.). The native, oxidized form of alamarBlue™ is taken up readily by cells and reduced intracellularly by the mitochondrial electron transport chain, resulting in a shift in its absorbance and fluorescence. Normal human dermal fibroblasts (NHDF), obtained from Clonetics (Biowhittaker Inc., Walkersville, Md.), were cultured in Clonetics FGM2 medium and grown to confluence in 96-well plates (Costar, Cambridge, Mass.). Culture medium was then replaced with DMEM (Life Technologies, Rockville, Md.) prepared with Evian® mineral water. After 72 hours cells were treated with 10 mM L-carnitine (Biosint USA, Larchmont, N.Y.), 10 mM sodium pyruvate (American International Chemical Inc., Natick, Mass.) or 10 mM L-carnitine in combination with 10 mM sodium pyruvate. At the end of a 3-hour incubation period, alamarBlue™ was added to each well and the plates returned to the incubator. After 1 hour the fluorescence was measured using a CytoFluor® Fluorescence Plate Reader (PerSeptive Biosystems, Framingham, Mass.) set with the following filter-combination: excitation at 530 nm and emission at 590 nm.

Row | SMILES | increase in metabolic activity [%]
1 | C[N+](C)(C)C[C@H](O)CC(=O)[O-] [carntine, L-carnitine] | 6.05
2 | CC(=O)C(=O)[O-].[Na+] [sodium pyruvate] | 2.16
